Test results reported in patent US10407409B2, “6-(5-hydroxy-1H-pyrazol-1-yl)nicotinamide inhibitors of PHD” (Takeda Pharmaceutical Company Limited, priority 2013, dated 2019).

Legend:
[1] = test system: HIF1a protein in H9c2 rat cardiomyocytes; test: Cell-based HIF-alpha stabilization assay (inhibition of PHD in cells); conditions: Rattus norvegicus, H9c2, 24 h, 24 hrs compound incubation, HIF1a protein by ELISA, read-out: Inhibition of PHD in cells (pEC50) (converted)
Protocol: Example B Inhibition of PHD in Cells
PHD Inhibition is Determined Using (Secondary Assay)
Cell-Based HIF-Alpha Stabilization Assay:
H9c2 rat cardiomyocytes (ATCC) were seeded in 96-well tissue culture microplates and cultured for 24 hours prior to addition of compounds (11 point range of serial dilutions) or dimethylsulfoxide vehicle. After 24 hrs of compound incubation, whole cell extracts were prepared by lysing cells in cell extraction buffer containing protease and phosphatase inhibitors (Meso-Scale Discovery). HIF1a protein content was assessed by ELISA (Meso-Scale Discovery) and expressed as a % relative to the maximum response obtained from the positive control, desferrioxamine (Sigma-Aldrich). Compound EC50s were obtained by curve-fitting using XLfit4 MicroSoft Excel curve-fitting software. Compound EC50pos were obtained using XLfit4 to calculate the compound concentration that results in 50% of the desferrioxamine maximum response.

[2] = molecular target: PHD2 enzyme (residues 181-417) (Homo sapiens (Human), UniProt Q9GZT9); test: Inhibition of PHD enzyme (LC/MS peptide hydroxylation assay); format: biochemical; conditions: PHD2 (residues 181-417) 5 nM, 60 min pre-incubation; -log(IC50), IC50 molar
Protocol: Example A Inhibition of PHD Enzyme
The IC50 values for the PHD2 enzyme (residues 181-417) were determined by mixing increasing amounts of inhibitor with a fixed amount of enzyme (5 nM, final concentration) and Biotin labeled peptide (Biotin-Asp-Leu-Glu-Met-Leu-Ala-Pro-Tyr-Ile-Pro-Met-Asp-Asp-Asp-Phe-Gln-Leu, 1 uM final concentration) and 2-Oxyglutarate (2 uM final concentration) in 50 mM HEPES, 50 mM KCl, 0.5 mM TCEP, 2 uM FeCl2, 0.1 mg/ml BSA, at pH 7.3. The reaction was conducted by pre-incubating the enzyme in the presence of inhibitor for 60 min at room temperature. The activity of the free enzyme was measured by adding the peptide, the 2-Oxoglutarate (see above for final concentrations), and Ascorbic Acid (1 mM final concentration). The enzymatic activity was quenched after 60 min by adding an excess of a tight binding inhibitor to the assay mixture. The amount of product released was measured by using a LC/MS system (Agilent HPLC with Applied Biosystems API3000 Mass Spectrometer). Data were analyzed using the classical isotherm equation for the determination of IC50 values and are pIC50, i.e., −log(IC50), where IC50 is molar concentration and are reported as pIC50, i.e., −log(IC50), where IC50 is molar concentration.

PHD2 enzyme (residues 181-417), sequence (Q9GZT9 181-417): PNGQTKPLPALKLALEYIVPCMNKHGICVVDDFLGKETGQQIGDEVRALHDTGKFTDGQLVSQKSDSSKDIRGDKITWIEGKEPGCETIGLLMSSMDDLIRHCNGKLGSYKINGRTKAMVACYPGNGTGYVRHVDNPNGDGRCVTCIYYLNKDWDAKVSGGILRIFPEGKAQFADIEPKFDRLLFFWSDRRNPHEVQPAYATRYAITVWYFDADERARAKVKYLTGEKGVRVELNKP

PHD Inhibition (pIC50) [2] | Structure (SMILES) | EC50 [1] [µM]
8.1 | COCCC1(NC(=O)c2ccc(-n3ncc(-c4ccc(C#N)cc4OC)c3O)nc2)CC1 [Example 168, 6-(4-(4-cyano-2-methoxyphenyl)-5-hydroxy-1H-pyrazol-1-yl)-N-(1-(2-methoxyethyl)cyclopropyl)nicotinamide] | 0.437
7.21 | Cc1cc(C#N)ccc1-c1cnn(-c2ccc(C(=O)N[C@@H]3CCOC3)cn2)c1O [Example 137, (R)-6-(4-(4-cyano-2-methylphenyl)-5-hydroxy-1H-pyrazol-1-yl)-N-(tetrahydrofuran-3-yl)nicotinamide] | 0.245
7.1 | Cc1cc(-n2ncc(-c3ccc(C#N)cc3)c2O)ncc1C(=O)NCCC1CCCOC1 (centres unmarked) [Example 279, 6-(4-(4-cyanophenyl)-5-hydroxy-1H-pyrazol-1-yl)-4-methyl-N-(2-(tetrahydro-2H-pyran-3-yl)ethyl)nicotinamide] | 2.63
7.12 | COCC1(CNC(=O)c2ccc(-n3ncc(-c4ccc(C#N)cc4)c3O)nc2)CC1 [Example 56, 6-(4-(4-cyanophenyl)-5-hydroxy-1H-pyrazol-1-yl)-N-((1-(methoxymethyl)cyclopropyl)methyl)nicotinamide] | 1.45
7.03 | COCC(C)(C)NC(=O)c1ccc(-n2ncc(-c3ccnc(OC)c3)c2O)nc1 [Example 17, 6-(5-hydroxy-4-(2-methoxypyridin-4-yl)-1H-pyrazol-1-yl)-N-(1-methoxy-2-methylpropan-2-yl)nicotinamide] | 0.347
7.39 | CC1(CNC(=O)c2ccc(-n3ncc(-c4ccc(C#N)cc4)c3O)nc2)COC1 [Example 261, 6-(4-(4-cyanophenyl)-5-hydroxy-1H-pyrazol-1-yl)-N-((3-methyloxetan-3-yl)methyl)nicotinamide] | 1.12
7.35 | CC1(NC(=O)c2ccc(-n3ncc(-c4ccc(C#N)cc4)c3O)nc2)CC1 [Example 198, 6-(4-(4-cyanophenyl)-5-hydroxy-1H-pyrazol-1-yl)-N-(1-methylcyclopropyl)nicotinamide] | 0.741
8.17 | Cc1c(-c2cnn(-c3ccc(C(=O)N4CCC[C@H](N(C)C)C4)cn3)c2O)ccc(C#N)c1F [Example 320, (S)-4-(1-(5-(3-(dimethylamino)piperidine-1-carbonyl)pyridin-2-yl)-5-hydroxy-1H-pyrazol-4-yl)-2-fluoro-3-methylbenzonitrile] | 0.741
8.41 | Cc1cc(C#N)ccc1-c1cnn(-c2ccc(C(=O)NC3CCN(CC(F)(F)F)CC3)cn2)c1O [Example 302, 6-(4-(4-cyano-2-methylphenyl)-5-hydroxy-1H-pyrazol-1-yl)-N-(1-(2,2,2-trifluoroethyl)piperidin-4-yl)nicotinamide] | 0.288
7.23 | CC(C)(C)NC(=O)c1ccc(-n2ncc(-c3ccc(C#N)cc3)c2O)nc1 [Example 202, N-(tert-butyl)-6-(4-(4-cyanophenyl)-5-hydroxy-1H-pyrazol-1-yl)nicotinamide] | 0.724
7.57 | O=C(NCc1ccccc1)c1ccc(-n2ncc(-n3ccccc3=O)c2O)nc1 [Example 193, N-benzyl-6-(5-hydroxy-4-(2-oxopyridin-1(2H)-yl)-1H-pyrazol-1-yl)nicotinamide] | 2.69
7.22 | C[C@H]1C[C@@H]1NC(=O)c1ccc(-n2ncc(-c3ccc(C#N)cc3)c2O)nc1 [Example 169, 6-(4-(4-cyanophenyl)-5-hydroxy-1H-pyrazol-1-yl)-N-((1s,2s)-2-methylcyclopropyl)nicotinamide] | 0.891
8.55 | Cc1c(-c2cnn(-c3ccc(C(=O)N4CCC[C@H](N(C)CC(F)F)C4)cn3)c2O)ccc(C#N)c1F [Example 333, (S)-4-(1-(5-(3-((2,2-difluoroethyl)(methyl)amino)piperidine-1-carbonyl)pyridin-2-yl)-5-hydroxy-1H-pyrazol-4-yl)-2-fluoro-3-methylbenzonitrile] | 0.741
